Series [1] relates to Mus musculus. Nature of the series: Toxicity in Swiss Webster mouse assessed as mortality at 0.338 mmol/kg, ip after 5 mins. In kind it is organism-based. The settings on record: in vivo.
Series [2] deals with Mus musculus. Description: Toxicity in Swiss Webster mouse assessed as tremor at 0.675 mmol/kg, ip after 8 to 10 mins. It counts as organism-based. The settings on record: in vivo.
For series [3], the system named is Mus musculus. Description: Toxicity in Swiss Webster mouse assessed as clonic convulsions at 0.675 mmol/kg, ip after 8 to 10 mins. In kind it is organism-based. The settings on record: in vivo.
Series [4] has as its system Mus musculus. Description: Toxicity in Swiss Webster mouse assessed as recovery at 0.675 mmol/kg, ip after 30 mins. In kind it is organism-based. The settings on record: in vivo, 0.5 h.
Series [5] concerns Mus musculus. Description: Effect on Swiss Webster mouse assessed as sleeping at 0.675 mmol/kg, ip after 1 hr. In kind it is ADME, organism-based. The settings on record: in vivo.
The subject of series [6] is Mus musculus. Nature of the series: Toxicity in Swiss Webster mouse assessed as occasional tremor at 0.3 mmol/kg, ip up to 20 mins. The settings on record: in vivo. In kind it is organism-based.
Series [7] has as its system Mus musculus. Nature of the series: Toxicity in Swiss Webster mouse assessed as clonic convulsions at 0.3 mmol/kg, ip up to 20 mins. It counts as organism-based. The settings on record: in vivo.
In series [8] the test system is Mus musculus. Description: Effect on Swiss Webster mouse assessed as sleeping at 0.3 mmol/kg, ip after 20 mins. It counts as ADME, organism-based. The settings on record: in vivo.
For series [9], the system named is Mus musculus. Nature of the series: Induction of hyperactivity in Swiss Webster mouse assessed as salivation at <0.3 mmol/kg, ip up to 90 mins. In kind it is functional, organism-based.
In series [10] the test system is Mus musculus. Nature of the series: Induction of hyperactivity in Swiss Webster mouse assessed as exopthalmia at <0.3 mmol/kg, ip up to 90 mins. It counts as functional, organism-based.
The test system of series [11] is Mus musculus. Description: Induction of hyperactivity in Swiss Webster mouse assessed as piloerection at <0.3 mmol/kg, ip up to 90 mins. It counts as functional, organism-based.
The subject of series [12] is Mus musculus. Description: Induction of hyperactivity in Swiss Webster mouse assessed as sniffing at <0.3 mmol/kg, ip up to 90 mins. In kind it is functional, organism-based.
Series [13] deals with Mus musculus. Description: Induction of hyperactivity in Swiss Webster mouse assessed as grooming at <0.3 mmol/kg, ip up to 90 mins. In kind it is functional, organism-based.
Series [14] deals with Mus musculus. Nature of the series: Induction of hyperactivity in Swiss Webster mouse assessed as exploratory behavior at <0.3 mmol/kg, ip up to 90 mins. In kind it is functional, organism-based.
The subject of series [15] is Mus musculus. Nature of the series: Toxicity in Swiss Webster mouse assessed as depression at <0.3 mmol/kg, ip up to 90 mins. In kind it is organism-based. The settings on record: in vivo, 1.5 h.
Series [16] deals with Mus musculus. Description: Effect on Swiss Webster mouse assessed as sleeping at <0.3 mmol/kg, ip up to 90 mins. In kind it is ADME, organism-based. The settings on record: in vivo, 1.5 h.
Series [17] is described as follows: Chemical stability of the compound at 0.1 M at pH 5.3 at 37 degC after 24 hrs by 1H NMR spectroscopy. It counts as physicochemical. The settings on record: buffer, pH 5.3, 24 h.
A short description of series [18]: Octanol-water partition coefficient, log P of the compound. In kind it is physicochemical.
The test system of series [19] is Mus musculus. Description: Induction of spontaneous activity in Swiss Webster mouse assessed as spontaneous activity counts at 0.025 mmol/kg, ip measured over 90 mins. In kind it is functional.
Series [20] relates to Mus musculus. Nature of the series: Induction of spontaneous activity in Swiss Webster mouse assessed as spontaneous activity counts at 0.075 mmol/kg, ip measured over 90 mins. In kind it is functional.
Series [21] deals with Mus musculus. Description: Induction of spontaneous activity in Swiss Webster mouse assessed as spontaneous activity counts at 0.225 mmol/kg, ip measured over 90 mins. In kind it is functional.
Series [22] relates to Mus musculus. Description: Induction of spontaneous activity in Swiss Webster mouse assessed as spontaneous activity counts at 0.30 mmol/kg, ip measured over 90 mins. It counts as functional.
Series [23] has as its system Mus musculus. Description: Toxicity in Swiss Webster mouse assessed as mortality at 0.675 mmol/kg, ip after 5 mins. The settings on record: in vivo. In kind it is organism-based.
A short description of series [24]: Toxicity in ip dosed Swiss Webster mouse after 5 mins. It counts as organism-based. The settings on record: in vivo.
Series [25] concerns Mus musculus. Description: Induction of hyperactivity in Swiss Webster mouse assessed as exopthalmia at 0.025 to 0.3 mmol/kg, ip up to 90 mins. In kind it is functional, organism-based.
Series [26] relates to Mus musculus. Description: Induction of hyperactivity in Swiss Webster mouse assessed as exploratory behavior at 0.025 to 0.3 mmol/kg, ip up to 90 mins. It counts as functional, organism-based.
In series [27] the test system is Mus musculus. Description: Induction of hyperactivity in Swiss Webster mouse assessed as pilomotor erection at 0.025 to 0.3 mmol/kg, ip up to 90 mins. In kind it is functional, organism-based.
In series [28] the test system is Mus musculus. Nature of the series: Induction of hyperactivity in Swiss Webster mouse assessed as sniffing at 0.025 to 0.3 mmol/kg, ip up to 90 mins. It counts as functional, organism-based.
The subject of series [29] is Mus musculus. Nature of the series: Induction of hyperactivity in Swiss Webster mouse assessed as salivation at 0.025 to 0.3 mmol/kg, ip up to 90 mins. In kind it is functional, organism-based.
Series [30] has as its system Mus musculus. Nature of the series: Induction of hyperactivity in Swiss Webster mouse assessed as grooming at 0.025 to 0.3 mmol/kg, ip up to 90 mins. It counts as functional, organism-based.
Series [31] concerns Mus musculus. Nature of the series: Effect on Swiss Webster mouse assessed as sleeping at 0.025 to 0.3 mmol/kg, ip. The settings on record: in vivo. It counts as ADME, organism-based.
The test system of series [32] is Mus musculus. Description: Induction of hyperactivity in Swiss Webster mouse assessed as salivation at 0.225 to 0.3 mmol/kg, ip up to 90 mins. It counts as functional, organism-based.
The subject of series [33] is Mus musculus. Nature of the series: Induction of hyperactivity in Swiss Webster mouse assessed as grooming at 0.225 to 0.3 mmol/kg, ip up to 90 mins. It counts as functional, organism-based.
The subject of series [34] is Mus musculus. Description: Induction of hyperactivity in Swiss Webster mouse assessed as exopthalmia at 0.225 to 0.3 mmol/kg, ip up to 90 mins. In kind it is functional, organism-based.
The subject of series [35] is Mus musculus. Description: Toxicity in Swiss Webster mouse assessed as ataxia at 0.675 mmol/kg, ip after 2 to 3 mins. In kind it is organism-based. The settings on record: in vivo.
For series [36], the system named is Mus musculus. Nature of the series: Toxicity in Swiss Webster mouse assessed as tremor at 0.675 mmol/kg, ip after 2 to 3 mins. The settings on record: in vivo. It counts as organism-based.
Series [37] relates to Mus musculus. Description: Toxicity in Swiss Webster mouse assessed as symmetric clonic convulsions with vocalization at 0.675 mmol/kg, ip after 2 to 3 mins. It counts as organism-based. The settings on record: in vivo.

The record followed here is ChEMBL document CHEMBL3244232, “Steric effects of substituents on phenethylamine hallucinogens. 3,4-(Methylenedioxy)amphetamine analogues alkylated on the dioxole ring” (J Med Chem, 1979).

Activity calls are given as the source filed them. No cut-off for these calls is given here.

Usually logP stands for a log measure of how a compound divides between an organic and an aqueous phase. A low value points to lower lipophilicity. Turning to `CC(N)Cc1ccc2c(c1)OC(C)(C)O2` (centres undefined), the Activity result is “Toxic” in the series with Mus musculus [1]; “Toxic” with Mus musculus [2]; “Toxic” in the series with Mus musculus [3]; “Non-toxic” in the series on Mus musculus [4]; “Non-toxic” in the series with Mus musculus [5]; “Toxic” with Mus musculus [6]. Also, the Activity result was “Toxic” in the series on Mus musculus [7]; “Non-toxic” with Mus musculus [8]; “Toxic” in the series with Mus musculus [15]; “Non-toxic” in the series on Mus musculus [16]; 30 min⁻¹ with Mus musculus [19]; 27 min⁻¹ in the series with Mus musculus [20]. For the same compound, the Activity was 17 min⁻¹ with Mus musculus [21], 33 min⁻¹ in the series on Mus musculus [22] and “Toxic” in the series on Mus musculus [23]. Also, the outcome with Mus musculus [9], in the series with Mus musculus [10], in the series with Mus musculus [11], in the series with Mus musculus [12], in the series with Mus musculus [13] and in the series with Mus musculus [14] was inactive. Besides, the Stability entry in series [17] is “Stable”. In addition, the log partition coefficient (logP) in series [18] was found to be 2.6. The compound further came in with an MTD at 5 min in series [24] of 338 µmol/kg.
For the compound `CC(N)Cc1ccc2c(c1)OCO2` (centres undefined) [TENAMFETAMINE], in series [18], the logP was determined as 1.64. Moreover, the Activity in the series on Mus musculus [19] is 64 min⁻¹; in the series on Mus musculus [20], 276 min⁻¹; in the series with Mus musculus [21], 105 min⁻¹. Moreover, the result in the series on Mus musculus [25], in the series with Mus musculus [26], in the series on Mus musculus [27], with Mus musculus [28], in the series on Mus musculus [29] and in the series on Mus musculus [30] was Active.
As to `CC(N)Cc1ccc2c(c1)OC(C)O2` (centres undefined), the Activity result in the series on Mus musculus [31] was “Non-toxic”; in the series on Mus musculus [19] it was 39 min⁻¹; in the series with Mus musculus [20], 25 min⁻¹; with Mus musculus [21], 94 min⁻¹; with Mus musculus [22] it was 192 min⁻¹; in the series with Mus musculus [23], “Toxic”. Besides, the Activity result in the series on Mus musculus [35], in the series with Mus musculus [36] and in the series on Mus musculus [37] was “Toxic” each time. Moreover, the logP in series [18] was 2.1. Also, the outcome in the series on Mus musculus [25], with Mus musculus [26], with Mus musculus [27], in the series on Mus musculus [28], with Mus musculus [29] and in the series on Mus musculus [30] was Active. The outcome in the series on Mus musculus [32], with Mus musculus [33] and with Mus musculus [34] was Active. In [24], the MTD at 5 min was found to be 300 µmol/kg.
